What was measured:
human androgen receptor = target: T1, human androgen receptor (Homo sapiens, UniProt P10275); experiment: Reporter assay of an androgen receptor responsive sequence (luciferase, transiently transfected HEK293 cells); assay type: cell-based; conditions: 24 hours incubation, relative to activity of 100 nM DHT, read-out: AR transcriptive activity (pEC50) (converted)
T1 construct: expressed in transfected cells; host or cells: HEK293
T1 sequence (P10275 1-920): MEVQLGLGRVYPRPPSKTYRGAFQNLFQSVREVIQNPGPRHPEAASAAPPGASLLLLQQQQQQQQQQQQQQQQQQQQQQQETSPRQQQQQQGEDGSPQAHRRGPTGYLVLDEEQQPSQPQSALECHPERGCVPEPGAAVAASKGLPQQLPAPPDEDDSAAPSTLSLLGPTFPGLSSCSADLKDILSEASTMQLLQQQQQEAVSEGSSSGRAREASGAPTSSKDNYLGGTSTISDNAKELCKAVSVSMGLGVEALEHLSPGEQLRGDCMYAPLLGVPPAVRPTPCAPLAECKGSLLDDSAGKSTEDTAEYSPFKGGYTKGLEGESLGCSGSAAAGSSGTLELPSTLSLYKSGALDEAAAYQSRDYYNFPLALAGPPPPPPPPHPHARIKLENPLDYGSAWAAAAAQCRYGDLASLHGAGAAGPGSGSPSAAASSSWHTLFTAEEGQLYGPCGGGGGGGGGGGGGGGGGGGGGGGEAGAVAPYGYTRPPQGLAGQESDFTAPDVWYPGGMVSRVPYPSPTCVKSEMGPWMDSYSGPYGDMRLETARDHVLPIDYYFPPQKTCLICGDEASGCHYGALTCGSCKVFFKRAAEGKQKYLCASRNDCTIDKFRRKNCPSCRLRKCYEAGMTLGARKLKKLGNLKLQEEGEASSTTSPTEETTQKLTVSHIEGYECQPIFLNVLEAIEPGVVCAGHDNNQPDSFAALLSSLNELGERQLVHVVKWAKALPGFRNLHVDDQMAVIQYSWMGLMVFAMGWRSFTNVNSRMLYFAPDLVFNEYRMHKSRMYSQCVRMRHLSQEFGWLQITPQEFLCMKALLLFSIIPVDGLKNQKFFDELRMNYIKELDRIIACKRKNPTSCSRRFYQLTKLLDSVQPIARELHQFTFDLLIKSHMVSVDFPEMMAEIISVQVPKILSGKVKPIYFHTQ
Outline: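 HEK293 cells transiently transfected for 3 h with ARE-firefly luciferase, full-length human AR and TK-Renilla plasmids, then exposed to compound for 24 h at 37 °C in 5% charcoal-treated FBS/DMEM. Dual-Glo luminescence read; pEC50 from 4-parameter fit relative to 100 nM DHT.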

[1] = target: T2, androgen receptor (AR-LBD) (Rattus norvegicus, UniProt P15207); experiment: Evaluation of androgen receptor affinity (PolarScreen Androgen Receptor Competitor Assay Kit, Red; fluorescence polarization); conditions: 22° C. for 5 hours, relative to binding rate of 1 μM DHT, read-out: AR affinity (pEC50) (converted)
T2 construct: 5 μL of 2×AR-LBD/Fluoromone AL Red Complex contained in the kit; purchased Invitrogen
T2 sequence (P15207 651-882 limits assumed): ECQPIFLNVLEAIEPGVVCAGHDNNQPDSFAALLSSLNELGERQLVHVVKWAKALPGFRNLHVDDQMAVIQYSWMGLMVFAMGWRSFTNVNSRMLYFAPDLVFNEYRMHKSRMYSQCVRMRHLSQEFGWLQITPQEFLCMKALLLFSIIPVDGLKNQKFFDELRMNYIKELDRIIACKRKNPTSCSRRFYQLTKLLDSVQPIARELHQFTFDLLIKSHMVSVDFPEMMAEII
Outline: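 Fluorescence polarization competition assay: compound was incubated in duplicate with the kit's AR-LBD/Fluoromone AL Red complex for 5 h at 22 °C. Binding was expressed relative to 1 μM DHT, and pEC50 was derived by 4-parameter fit.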

Row | SMILES | EC50 (human androgen receptor) [nM] | EC50 [1] [nM]
1 | Cc1nc(CN(CCc2ccc(OC(F)(F)F)cc2)c2nc(C(=O)NS(C)(=O)=O)c(C)s2)cs1 [Compound 507, 5-methyl-N-methylsulfonyl-2-[(2-methylthiazol-4-yl)methyl-[2-[4-(trifluoromethoxy)phenyl]ethyl]amino]thiazole-4-carboxamide] | 501 | 39.8
2 | CS(=O)(=O)NC(=O)c1nc(N(Cc2ccc(OC(F)F)cc2)c2ccc(C#N)cc2)oc1C1CC1 [Compound 648, 2-[4-cyano-N-[[4-(difluoromethoxy)phenyl]methyl]anilino]-5-cyclopropyl-N-methylsulfonyl-oxazole-4-carboxamide] | > 10000 | 50.1
3 | COc1cccc(CN(c2ccc(C#N)cc2)c2nc(C(=O)NS(C)(=O)=O)c(C)s2)n1 [Compound 491, 2-[4-cyano-N-[(6-methox-2-pyridyl)methyl]anilino]-5-methyl-N-methylsulfonyl-thiazole-4-carboxamide] | 316 | 100
4 | Cc1sc(N(Cc2ccc(OC(F)(F)F)c(F)c2)c2ccc(C#N)cc2)nc1C(=O)NS(C)(=O)=O [Compound 420, 2-[4-cyano-N-[[3-fluoro-4-(trifluoromethoxy)phenyl]methyl]anilino]-5-methyl-N-methylsulfonyl-thiazole-4-carboxamide] | 158 | 20
5 | CS(=O)(=O)NC(=O)c1nc(N(Cc2ccc(C(F)(F)F)cc2)c2ccc(C#N)cc2)sc1Cl [Example 272, 5-chloro-2-[4-cyano-N-[[4-(trifluoromethyl)phenyl]methyl]anilino]-N-methylsulfonyl-thiazole-4-carboxamide] | 25.1 | 31.6
6 | Cc1sc(N(CCc2ccc(Cl)cc2)Cc2ccc(Cl)cc2)nc1C(=O)NS(=O)(=O)Cc1cccnc1 [Compound 695, 2-[2-(4-chlorophenyl)ethyl-[(4-chlorophenyl)methyl]amino]-5-methyl-N-(3-pyridylmethylsulfonyl)thiazole-4-carboxamide] | 63.1 | 25.1
7 | CS(=O)(=O)NC(=O)c1nc(N(Cc2ccc(Cl)cc2)c2ccc(C#N)cc2)sc1Br [Example 248, 5-bromo-2-[N-[(4-chlorophenyl)methyl]-4-cyano-anilino]-N-methylsulfonyl-thiazole-4-carboxamide] | 25.1 | 31.6
8 | Cc1sc(N(CC2COc3ccccc3C2)c2ccc(C#N)cc2)nc1C(=O)NS(C)(=O)=O (stereo not drawn) [Compound 510, 2-[N-(chroman-3-ylmethyl)-4-cyano-anilino]-5-methyl-N-methylsulfonyl-thiazole-4-carboxamide] | 1260 | 126
9 | Cc1sc(N(CCC2CCCCC2)Cc2ccc(Cl)cc2)nc1C(=O)NS(=O)(=O)Cc1cccc(F)c1 [Compound 731, 2-[(4-chlorophenyl)methyl-(2-cyclohexylethyl)amino]-N-[(3-fluorophenyl)methylsulfonyl]-5-methyl-thiazole-4-carboxamide] | > 10000 | 501
10 | CCc1oc(N(Cc2ccc(C(F)(F)F)nc2)c2ccc(C#N)cc2)nc1C(=O)NS(C)(=O)=O [Compound 639, 2-[4-cyano-N-[[6-(trifluoromethyl)-3-pyridyl]methyl]anilino]-5-ethyl-N-methylsulfonyl-oxazole-4-carboxamide] | 7940 | 251
11 | Cc1oc(N(CCc2ccc(Cl)cc2)Cc2ccc3ncsc3c2)nc1C(=O)NS(C)(=O)=O [Compound 545, 2-[1,3-benzothiazol-6-ylmethyl-[2-(4-chlorophenyl)ethyl]amino]-5-methyl-N-methylsulfonyl-oxazole-4-carboxamide] | 158 | 39.8
12 | Cc1sc(N(CCC2CCCCC2)c2ccc(C#N)cc2)nc1C(=O)NS(C)(=O)=O [Compound 407, 2-[4-cyano-N-(2-cyclohexylethyl)anilino]-5-methyl-N-methylsulfonyl-thiazole-4-carboxamide] | 200 | 50.1
13 | COCCCS(=O)(=O)NC(=O)c1nc(N(Cc2ccc(OC(F)F)c(Cl)c2)c2ccc(C#N)cc2)sc1C [Example 189, 2-[N-[[3-chloro-4-(difluoromethoxy)phenyl]methyl]-4-cyano-anilino]-N-(3-methoxypropylsulfonyl)-5-methyl-thiazole-4-carboxamide] | 158 | 31.6
14 | Cc1sc(N(Cc2ccc(OC(F)F)cc2)c2ccc(C#N)cc2)nc1C(=O)NS(C)(=O)=O [Compound 41, 2-[4-cyano-N-[[4-(difluoromethoxy)phenyl]methyl]anilino]-5-methyl-N-methylsulfonyl-thiazole-4-carboxamide] | 31.6 | 31.6
15 | Cc1sc(N(CCC2CCCCC2)Cc2ccc(Cl)cc2)nc1C(=O)NS(C)(=O)=O [Compound 728, 2-[(4-chlorophenyl)methyl-(2-cyclohexylethyl)amino]-5-methyl-N-methylsulfonyl-thiazole-4-carboxamide] | 631 | 39.8
16 | Cc1sc(N(CCc2ccc(C#N)cc2)Cc2ccc(Cl)cc2)nc1C(=O)NS(=O)(=O)Cc1cccc(F)c1 [Compound 322, 2-[(4-chlorophenyl)methyl-[2-(4-cyanophenyl)ethyl]amino]-N-[(3-fluorophenyl)methylsulfonyl]-5-methyl-thiazole-4-carboxamide] | > 10000 | 63.1
17 | Cc1sc(N(Cc2ccccc2F)c2ccc(C#N)cc2)nc1C(=O)NS(C)(=O)=O [Compound 13, 2-[4-cyano-N-[(2-fluorophenyl)methyl]anilino]-5-methyl-N-methylsulfonyl-thiazole-4-carboxamide] | 316 | 50.1
18 | COc1ccccc1CN(c1ccc(C#N)cc1)c1nc(C(=O)NS(C)(=O)=O)c(Cl)s1 [Example 270, 5-chloro-2-[4-cyano-N-[(2-methoxyphenyl)methyl]anilino]-N-methylsulfonyl-thiazole-4-carboxamide] | 251 | 79.4
19 | CSc1cccc(CN(c2ccc(C#N)cc2)c2nc(C(=O)NS(C)(=O)=O)c(C)s2)c1 [Compound 431, 2-[4-cyano-N-[(3-methylsulfanylphenyl)methyl]anilino]-5-methyl-N-methylsulfonyl-thiazole-4-carboxamide] | 316 | 20
20 | Cc1sc(N(Cc2ccccc2)c2ccc(C#N)cc2)nc1C(=O)NS(=O)(=O)C(F)F [Compound 69, 2-(N-benzyl-4-cyano-anilino)-N-(difluoromethylsulfonyl)-5-methyl-thiazole-4-carboxamide] | 1260 | 25.1
21 | Cc1sc(N(Cc2csc(COc3ccccc3)n2)c2ccc(C#N)cc2)nc1C(=O)NS(C)(=O)=O [Compound 465, 2-[4-cyano-N-[[2-(phenoxymethyl)thiazol-4-yl]methyl]anilino]-5-methyl-N-methylsulfonyl-thiazole-4-carboxamide] | 794 | 25.1
22 | CCc1oc(N(Cc2ccc(Br)c(F)c2)c2ccc(C#N)cc2)nc1C(=O)NS(C)(=O)=O [Compound 652, 2-[N-[(4-bromo-3-fluoro-phenyl)methyl]-4-cyano-anilino]-5-ethyl-N-methylsulfonyl-oxazole-4-carboxamide] | 158 | 25.1
23 | Cc1sc(N(Cc2ccc(F)cc2Br)c2ccc(C#N)cc2)nc1C(=O)NS(C)(=O)=O [Example 177, 2-[N-[(2-bromo-4-fluoro-phenyl)methyl]-4-cyano-anilino]-5-methyl-N-methylsulfonyl-thiazole-4-carboxamide] | 501 | 79.4
24 | Cc1sc(N(CCC(C)C)c2ccc(C#N)cc2)nc1C(=O)NS(C)(=O)=O [Compound 66, 2-(4-cyano-N-isopentyl-anilino)-5-methyl-N-methylsulfonyl-thiazole-4-carboxamide] | 794 | 79.4

— patent US10689354B2, “Aminoazole derivative” (Teijin Pharma Limited, priority 2015, dated 2020)
